# Measurements taken from ChEMBL document CHEMBL4145628, “Strategy for Extending Half-life in Drug Design and Its Significance” (ACS Med Chem Lett, 2018).
# Assays:
# [1] = Effective half life in rat; assay type: ADME, organism-based; settings: in vivo, read-out: t1/2eff (converted)
# [2] = Plasma clearance in rat; assay type: ADME, organism-based
# [3] = Fraction unbound in rat plasma; assay type: ADME, cell-free
# [4] = Bioavailability in rat; assay type: ADME, organism-based; settings: in vivo
half-life [1] [min],clearance [2] [mL/min/kg],fraction unbound [3],bioavailability [4] [%],SMILES
56.4,65,0.008,20,CC(C)Oc1cc2c(-c3cc(N4C[C@@H](C)O[C@@H](C)C4)ncn3)n[nH]c2cc1F
34.2,64,0.017,25,CC(C)Oc1ccc2[nH]nc(-c3cc(N4C[C@@H](C)O[C@@H](C)C4)ncn3)c2c1
31.2,69,0.019,32,C[C@H]1CN(c2cc(-c3n[nH]c4ccc(OC5(C)CC5)cc34)ncn2)CCO1
29.4,78,0.051,36,CC1(Oc2ccc3[nH]nc(-c4cc(N5CCO[C@@H](CO)C5)ncn4)c3c2)CC1
